From patent publication US20240351997A1, “NOVEL PARP7 INHIBITOR AND USE THEREOF” (SHANGHAI QILU PHARMACEUTICAL RESEARCH AND DEVELOPMENT …, priority 2021, published 2024) come the findings set out here.

The target of this assay is PARP7 (Homo sapiens (Human), UniProt Q7Z3E1). Put plainly: In vitro enzymology experiment of PARP7 (enzymatic inhibition). In kind it is biochemical. An outline of the steps:
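Histone-coated plate ADP-ribosylation format: compound preincubated 10 min at room temperature with preincubated (25 °C, 10 min) enzyme mixture; incorporated biotin detected by streptavidin-HRP and QuantaRed fluorescence (Ex550/Em620).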

Chain of PARP7 (Q7Z3E1 whole entry): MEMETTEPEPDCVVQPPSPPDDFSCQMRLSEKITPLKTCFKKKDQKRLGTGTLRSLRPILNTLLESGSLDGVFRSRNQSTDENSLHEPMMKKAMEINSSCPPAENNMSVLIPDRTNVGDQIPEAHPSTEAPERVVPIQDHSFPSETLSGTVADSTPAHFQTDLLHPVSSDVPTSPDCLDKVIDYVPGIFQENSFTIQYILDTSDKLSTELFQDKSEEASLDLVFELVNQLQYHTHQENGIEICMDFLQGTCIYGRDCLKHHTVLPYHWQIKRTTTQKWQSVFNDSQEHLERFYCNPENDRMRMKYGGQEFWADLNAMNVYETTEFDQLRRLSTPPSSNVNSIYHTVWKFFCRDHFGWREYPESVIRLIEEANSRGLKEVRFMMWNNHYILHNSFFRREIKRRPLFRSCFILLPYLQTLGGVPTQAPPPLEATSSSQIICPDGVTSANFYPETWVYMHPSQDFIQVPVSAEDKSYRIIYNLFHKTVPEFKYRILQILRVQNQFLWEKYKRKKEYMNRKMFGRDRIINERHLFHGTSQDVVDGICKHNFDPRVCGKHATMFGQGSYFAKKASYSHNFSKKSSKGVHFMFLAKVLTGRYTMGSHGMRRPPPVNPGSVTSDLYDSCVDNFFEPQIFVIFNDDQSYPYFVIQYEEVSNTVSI

The IC50 is the point on the concentration scale where inhibition reaches its midpoint. High values mean a need for much substance, low ones inhibition by little substance. The compound `C[C@@H]1CN(C(=O)OCCc2c[nH]c(=O)c(C(F)(F)F)c2)[C@@H](C)CN1c1ncc(C2CC2)cn1` [Example 183, 2-(6-Oxo-5-(trifluoromethyl)-1,6-dihydropyridin-3-yl)ethyl (2S,5R)-4-(5-cyclopropylpyrimidin-2-yl)-2,5-dimethylpiperazine-1-carboxylate] had an IC50 of 1 nM. That is a single-digit nanomolar value.
The compound `C[C@@H]1CN(c2ncc(C(F)(F)F)cn2)CCN1C(=O)Oc1cccc(-c2c[nH]c(=O)c(C(F)(F)F)c2)c1` [Example 140, 3-(6-Oxo-5-(trifluoromethyl)-1,6-dihydropyridin-3-yl)phenyl (R)-2-methyl-4-(5-(trifluoromethyl)pyrimidin-2-yl)piperazine-1-carboxylate] returned an IC50 of 2.86 nM. Compared with the last compound, the IC50 is about 2.9-fold higher.
`C[C@@H]1CN(c2ncc(C(F)(F)F)cn2)C[C@H](C)N1C(=O)OCCc1c[nH]c(=O)c(C(F)(F)F)c1` [Example 150, 2-(6-Oxo-5-(trifluoromethyl)-1,6-dihydropyridin-3-yl)ethyl (2S,6R)-2,6-dimethyl-4-(5-(trifluoromethyl)pyrimidin-2-yl)piperazine-1-carboxylate] showed an IC50 of 0.71 nM.
Turning to `O=C(OC[C@@H]1CCCN1c1c[nH]c(=O)c(C(F)(F)F)c1)N1CCN(c2ncc(C(F)(F)F)cn2)CC1` [Example 29, (S)-(1-(6-Oxo-5-(trifluoromethyl)-1,6-dihydropyridin-3-yl)pyrrolidin-2-yl)methyl 4-(5-(trifluoromethyl)pyrimidin-2-yl)piperazine-1-carboxylate], inhibition was half-maximal at 5.6 nM (IC50).
`C[C@@H](Cc1c[nH]c(=O)c(C(F)(F)F)c1)OC(=O)N1CC[C@H](Nc2ncc(C(F)(F)F)cn2)C1` [Example 66, (S)-1-(6-Oxo-5-(trifluoromethyl)-1,6-dihydropyridin-3-yl)propan-2-yl (S)-3-((5-(trifluoromethyl)pyrimidin-2-yl)amino) pyrrolidine-1-carboxylate] registered an IC50 of 1.82 nM.
In the case of `N#CC[C@@H]1CN(c2ncc(C(F)(F)F)cn2)CCN1C(=O)OCCc1c[nH]c(=O)c(C(F)(F)F)c1` [Example 128, 2-(6-Oxo-5-(trifluoromethyl)-1,6-dihydropyridin-3-yl)ethyl (R)-2-(cyanomethyl)-4-(5-(trifluoromethyl)pyrimidin-2-yl)piperazine-1-carboxylate] it was 0.81 nM.
In the case of `C[C@@H](Cc1c[nH]c(=O)c(C(F)(F)F)c1)OC(=O)N1CCN(c2ncc(C(F)(F)F)cn2)C[C@@H]1CO` [Example 78, (S)-1-(6-Oxo-5-(trifluoromethyl)-1,6-dihydropyridin-3-yl)propan-2-yl (R)-2-(hydroxymethyl)-4-(5-(trifluoromethyl)pyrimidin-2-yl)piperazine-1-carboxylate] it was 1.4 nM; in that of `C[C@@H](Cc1c[nH]c(=O)c(C(F)(F)F)c1)OC(=O)N[C@@H]1CCN(c2ncc(C(F)(F)F)cn2)C1` [Example 52, (S)-1-(6-Oxo-5-(trifluoromethyl)-1,6-dihydropyridin-3-yl)propan-2-yl ((R)-1-(5-(trifluoromethyl)pyrimidin-2-yl)pyrrolidin-3-yl)carbamate], 1.18 nM; in that of `Cc1cnc(N2C[C@H](C)N(C(=O)OCCc3c[nH]c(=O)c(C(F)(F)F)c3)[C@@H](C)C2)nc1` [Example 164, 2-(6-Oxo-5-(trifluoromethyl)-1,6-dihydropyridin-3-yl)ethyl (2S,6S)-2,6-dimethyl-4-(5-methylpyrimidin-2-yl)piperazine-1-carboxylate], 5.6 nM.
In the case of `C[C@@H](Cc1c[nH]c(=O)c(C(F)(F)F)c1)OC(=O)N1[C@@H](C)CN(c2ncc(C3CC3)cn2)C[C@@H]1C` [Example 177, (S)-1-(6-Oxo-5-(trifluoromethyl)-1,6-dihydropyridin-3-yl)propan-2-yl (2S,6S)-4-(5-cyclopropylpyrimidin-2-yl)-2,6-dimethylpiperazine-1-carboxylate] it was 0.78 nM; in that of `C[C@@H]1CN(C(=O)OCCc2c[nH]c(=O)c(C(F)(F)F)c2)C[C@H](C)N1c1ncc(C2CC2)cn1` [Example 181, 2-(6-Oxo-5-(trifluoromethyl)-1,6-dihydropyridin-3-yl)ethyl (3S,5R)-4-(5-cyclopropylpyrimidin-2-yl)-3,5-dimethylpiperazine-1-carboxylate], 1.3 nM.
Take `O=C(CCOC[C@H]1CCCN1c1c[nH]c(=O)c(C(F)(F)F)c1)N1CCN(c2ncc(C(F)(F)F)cn2)CC1` [Example 10, (R)-5-(2-((3-Oxo-3-(4-(5-(trifluoromethyl)pyrimidin-2-yl)piperazin-1-yl)propoxy)methyl)pyrrolidin-1-yl)-3-(trifluoromethyl)pyridin-2(1H)-one]: the IC50 stood at 6.7 nM. This IC50 lies about 5.2-fold higher than the previous one.
For `CC(C(=O)N1CCN(c2ncc(C(F)(F)F)cn2)CC1)c1c[nH]c(=O)c(C(F)(F)F)c1` (stereo not drawn) [Example 60, 5-(1-Oxo-1-(4-(5-(trifluoromethyl)pyrimidin-2-yl)piperazin-1-yl)propan-2-yl)-3-(trifluoromethyl)pyridin-2(1H)-one], inhibition was half-maximal at 7.02 nM (IC50). This IC50 and that of the compound before are within 1.5-fold of each other.
Compound `C[C@@H]1CN(C(=O)O[C@@H](C)Cc2c[nH]c(=O)c(C(F)(F)F)c2)CCN1c1ncc(C(F)(F)F)cn1` [Example 94, (S)-1-(6-Oxo-5-(trifluoromethyl)-1,6-dihydropyridin-3-yl)propan-2-yl (R)-3-methyl-4-(5-(trifluoromethyl)pyrimidin-2-yl)piperazine-1-carboxylate] returned a concentration for half-maximal inhibition (IC50) of 0.68 nM.
As for `C[C@@H](Cc1c[nH]c(=O)c(C(F)(F)F)c1)OC(=O)N1CCN(c2ncc(Cl)cn2)CC1` [Example 85, (S)-1-(6-Oxo-5-(trifluoromethyl)-1,6-dihydropyridin-3-yl)propan-2-yl 4-(5-chloropyrimidin-2-yl)piperazine-1-carboxylate], the IC50 is 0.56 nM.
In the case of `CC(Cc1c[nH]c(=O)c(C(F)(F)F)c1)OC(=O)N1CCN(c2ccc(C(F)(F)F)cn2)CC1` (stereo not drawn) [Example 62, 1-(6-Oxo-5-(trifluoromethyl)-1,6-dihydropyridin-3-yl)propan-2-yl 4-(5-(trifluoromethyl)pyridin-2-yl)piperazine-1-carboxylate] it was 2.09 nM.
`O=C(CCNc1c[nH]c(=O)c(C(F)(F)F)c1)N1CCN(c2ncc(C(F)(F)F)cn2)CC1` [Example 31, 5-((3-Oxo-3-(4-(5-(trifluoromethyl)pyrimidin-2-yl)piperazin-1-yl)propyl)amino)-3-(trifluoromethyl)pyridin-2(1H)-one] registered an IC50 of 1.19 nM.
`CC[C@H]1CN(c2ncc(C(F)(F)F)cn2)CCN1C(=O)OCCc1c[nH]c(=O)c(C(F)(F)F)c1` [Example 121, 2-(6-Oxo-5-(trifluoromethyl)-1,6-dihydropyridin-3-yl)ethyl (S)-2-ethyl-4-(5-(trifluoromethyl)pyrimidin-2-yl)piperazine-1-carboxylate]: inhibition was half-maximal at 0.54 nM (IC50).
Next, `C[C@@H](Cc1c[nH]c(=O)c(C(F)(F)F)c1)OC(=O)N1CC=C(c2ccc(C(F)(F)F)cn2)CC1` [Example 98, (S)-1-(6-Oxo-5-(trifluoromethyl)-1,6-dihydropyridin-3-yl)propan-2-yl 5-(trifluoromethyl)-3′,6′-dihydro-[2,4′-bipyridine]-1′(2′H)-carboxylate]: 0.83 nM; `C[C@H]1CN(C(=O)OCCc2c[nH]c(=O)c(C(F)(F)F)c2)CCN1c1ncc(C(F)(F)F)cn1` [Example 113, 2-(6-Oxo-5-(trifluoromethyl)-1,6-dihydropyridin-3-yl)ethyl (S)-3-methyl-4-(5-(trifluoromethyl)pyrimidin-2-yl)piperazine-1-carboxylate]: 0.65 nM.
In the case of `O=C(OCCc1c[nH]c(=O)c(C(F)(F)F)c1)N1CCN(c2ncc(C3CCCCC3)cn2)CC1` [Example 118, 2-(6-Oxo-5-(trifluoromethyl)-1,6-dihydropyridin-3-yl)ethyl 4-(5-cyclohexylpyrimidin-2-yl)piperazine-1-carboxylate] it was 0.93 nM; in that of `COC[C@@H]1CN(c2ncc(C(F)(F)F)cn2)CCN1C(=O)OCCc1c[nH]c(=O)c(C(F)(F)F)c1` (stereo in doubt) [Example 129, 2-(6-Oxo-5-(trifluoromethyl)-1,6-dihydropyridin-3-yl)ethyl 2-(methoxymethyl)-4-(5-(trifluoromethyl)pyrimidin-2-yl)piperazine-1-carboxylate], 0.39 nM.
As for `O=C(Oc1cncc(-c2c[nH]c(=O)c(C(F)(F)F)c2)c1)N1CCN(c2ncc(C(F)(F)F)cn2)CC1` [Example 136, 6′-Oxo-5′-(trifluoromethyl)-1′,6′-dihydro-[3,3′-bipyridin]-5-yl 4-(5-(trifluoromethyl)pyrimidin-2-yl)piperazine-1-carboxylate], the IC50 came out at 3.53 nM.
Take `Cc1cnc(N2C[C@H](C)N(C(=O)O[C@@H](C)Cc3c[nH]c(=O)c(C(F)(F)F)c3)[C@@H](C)C2)nc1` [Example 171, (S)-1-(6-Oxo-5-(trifluoromethyl)-1,6-dihydropyridin-3-yl)propan-2-yl (2S,6S)-2,6-dimethyl-4-(5-methylpyrimidin-2-yl)piperazine-1-carboxylate]: inhibition was half-maximal at 1.4 nM (IC50).
In the case of `CC(Cc1c[nH]c(=O)c(C(F)(F)F)c1)OC(=O)N1CCN(c2ncc(Cl)cn2)CC1` (stereo not drawn) [Example 44, 1-(6-Oxo-5-(trifluoromethyl)-1,6-dihydropyridin-3-yl)propan-2-yl 4-(5-chloropyrimidin-2-yl)piperazine-1-carboxylate] it was 0.8 nM; in that of `O=C(O[C@H]1CCC[C@@H]1c1c[nH]c(=O)c(C(F)(F)F)c1)N1CCN(c2ncc(C(F)(F)F)cn2)CC1` [Example 56, (1S,2R)-2-(6-Oxo-5-(trifluoromethyl)-1,6-dihydropyridin-3-yl)cyclopentyl 4-(5-(trifluoromethyl)pyrimidin-2-yl)piperazine-1-carboxylate], 2.27 nM; in that of `Cc1cnc(N2C[C@@H](C)N(C(=O)O[C@@H](C)Cc3c[nH]c(=O)c(C(F)(F)F)c3)C[C@H]2C)nc1` [Example 169, (S)-1-(6-Oxo-5-(trifluoromethyl)-1,6-dihydropyridin-3-yl)propan-2-yl (2R,5R)-2,5-dimethyl-4-(5-methylpyrimidin-2-yl)piperazine-1-carboxylate], 0.7 nM.
